Data on five molecules can be found in publication PMC11279160 (Microorganisms, 2024).

Series [1] is described as follows: in vitro. The note with it: mouse.
Protocol: (§3) Murine J774A.1 lineage macrophages and VERO CCL 81 cells were grown in 750 cm^2 cell culture flasks (Corning Glass Workers, New York, NY, USA) containing complete RPMI medium (10% SFB and 1% stabilized anti-mycotic–antibiotic solution), incubated at 37 °C and 5% CO2. The cells were observed on all days and replicates were always conducted after the cells reached confluence, around 72 to 96 h [22].
(§4) The cytotoxicity assay was performed in 96-well plates using MTT for cell viability observation. Plates containing 100 μL of complete RPMI medium and approximately 5 × 10^5 J774A.1 macrophages or VERO CCL 81 cells were incubated for 4 h at 37 °C and 5% CO2 for cell adhesion to occur. […] As a positive control, the reference drugs meglumine antimoniate (200–40,000 µM) and amphotericin B (0.031–2 µM) were used, and as a negative control, complete RPMI 1640 medium at 0.5% DMSO was used (considering 100% cell viability). After 72 h of incubation at 37 °C and 5% CO2, 10 μL of MTT was added and incubated for another 4 h at room temperature. The medium was then removed, and 100 μL of DMSO was added to dilute the formazan crystals created by the MTT [23]. Finally, the plate was taken to be read at 540 nm in a (Biotek model Elx800) spectrophotometer.
Series [2] deals with L. (L.) amazonensis promastigotes. The experiment in a line: Growth inhibition of promastigotes, MTT assay, 72 h. The format is cell-based. The note with it: Leishmania amazonensis; for IC50: read-out: Promastigotes IC50. The method, then: (§1) The species Leishmania (Leishmania) amazonensis (IFLA/BR/67/PH8) was maintained in promastigote form at a temperature of 26 °C in a biochemical oxygen demand incubator (BOD) (Eletrolab EL202, São Paulo, Brazil) and in complete Schneider medium (20% heat-inactivated fetal bovine serum (FBS), and 1% antibiotic solution). The L. (L.) amazonensis axenic amastigote forms were obtained through the differentiation of infective promastigote forms using Schneider medium supplemented with 5% FBS, pH 4.6, at a temperature of 32 °C. Parasite growth was observed daily and, if necessary, weekly repeats were performed.
(§2) Promastigote forms or axenic amastigotes in an exponential growth phase were cultured in 96-well plates with complete Schneider’s medium, at 1 × 10^6 parasites/mL. […] The plates were incubated for 72 h under a BOD at 26 °C to prepare promastigotes and 32 °C to prepare amastigotes. When ready, 10 μL of MTT (5 mg/mL) was added to all wells (with the exception of the blank) with an incubation for 4 h. Subsequently, 50 μL of SDS solution (dodecyl sodium sulfate) at 10% was added to dissolve the formazan crystals, and a spectrophotometric reading was then performed (Biotek model ELx800, Winooski, VT, USA) at 540 nm. Schneider medium with 0.5% DMSO was used, considering a 0% growth inhibition for the negative control.
(In general: Tetrazolium dyes change colour on reduction, which living cells bring about.)

Series [3] has as its system L. (L.) amazonensis intracellular amastigotes. In words: Activity against intramacrophageal amastigotes in infected J774A.1 macrophages. It counts as cell-based, Leishmania (Leishmania) amazonensis. Particulars: for EC50: read-out: Intracellular Amastigotes EC50; for reduction in macrophage infection rate / reduction in the number of internalized amastigotes per infected macrophage: compared to negative control. The method, then:
Macrophages were added to 24-well culture plates containing complete RPMI medium and sterile 13 mm coverslips, 1 × 10^5 J774A.1, and for cell adhesion incubated at 37 °C and 5% CO2 for 3 h. The medium was then removed, and three washes with PBS at 37 °C to remove non-adherent cells were performed. New medium, together with metacyclic promastigote forms in a proportion of 10 promastigotes/macrophage, was then added to the wells for infection and then incubated for another 4 h at 37 °C and 5% of CO2. The medium was then removed again and the plate washed with PBS to remove non-internalized […]. […] Subsequently, the coverslips were removed, stained with a quick panoptic kit, and mounted with Entelan®. In each coverslip, 300 macrophages were counted, together with the number of internalized amastigotes through optical microscopy at 1000× magnification. For the negative control, complete RPMI medium with 0.5% DMSO was used. At the end of the macrophage infection assay, the supernatant was stored at −20 °C for the subsequent evaluation of NO production.

A short description of series [4]: in vitro. Particulars: African green monkey.
Protocol: as §3, §4
For series [5], the system named is L. (L.) amazonensis axenic amastigotes. In words: Growth inhibition of axenic amastigotes, MTT assay, 72 h. The format is cell-based, Leishmania (Leishmania) amazonensis. The note with it: for EC50: read-out: Axenic Amastigotes EC50. The method, then: as §1, §2
Series [6] has as its system promastigotes of L. (L.) amazonensis. Particulars: cited from earlier work.
Series [7] deals with amastigotes of L. (L.) amazonensis. The note with it: cited from earlier work.
Series [8] relates to J774A.1 macrophages infected with L. (L.) amazonensis. In words: Nitric oxide production by infected macrophages, Griess reagent. It counts as cell-based, murine. Particulars: 3.12 μM, 6.25 μM and 12.5 μM, 72 h, compared to negative control. The protocol:
The measurement of NO production (using macrophage infection supernatant) was performed by the production of nitrite with Griess reagent. About 100 µL of infection supernatant was added to a 96-well plate. In parallel, serial concentrations of NaNO2 in RPMI medium were also added to the plate for interpolation of the standard curve. Griess reagent (1% Sulfanilamide in 10% (v/v) H3PO4 in Milli-Q® water and in equal parts to 0.1% naphthylenediamine in Milli-Q® water Q®) was then added and incubated for 10 min at room temperature. At the end of the incubation, a reading was conducted on a plate reader at 540 nm. The positive control was performed with Escherichia coli lipopolysaccharide at 2 μg/mL.
(In general: Griess reagent forms a coloured azo dye with nitrite.)

The test system is the same in series [9]. In words: ROS production in infected macrophages, H2DCFDA test. The format is cell-based, murine. The note with it: 3.12 μM, 6.25 μM and 12.5 μM, 72 h, compared to negative control. The protocol:
Macrophages were incubated in 96-well plates with complete RPMI medium for 3 h at 37 °C, and 5% CO2 for adherence. These were then infected with L. […] Then 10 μL of H2DCFDA was added for a final concentration of 20 μM and incubated for 30 min in the dark at 37 °C. A spectrofluorometer (FLx800) was used to read the fluorescence intensity, using 485 nm of excitation and 528 nm of emission. Antimycin A (5 μM) was used as the positive control for ROS generation.

Series [10] is described as follows: Cytotoxicity on VERO cells, MTT assay, 72 h. Particulars: African green monkey, VERO CCL 81 cells.
Protocol: as §3, §4
Series [11] in a line: Cytotoxicity on macrophages, MTT assay, 72 h. The note with it: mouse.
Protocol: as §3, §4
Series [12] deals with J774A.1 macrophages. The experiment in a line: Phagocytic capacity, neutral-red-stained zymosan. Particulars: 12.5 μM, 6.25 μM and 3.12 μM, 72 h, compared to negative control. It counts as cell-based, murine. The protocol:
At 72 h, 10 μL of VN-stained zymosan was added and then incubated for 30 min. […] To remove what was not phagocytized by the macrophages, the plate was washed with PBS. The plate extraction solution was added, and then solubilization was performed in a Kline shaker. The board was taken for reading on a spectrophotometer at 540 nm.

Series [13] concerns J774A.1 macrophages. The experiment in a line: Lysosomal activity, neutral red retention. It counts as cell-based, murine. The note with it: 12.5 μM, 6.25 μM and 3.12 μM, 72 h, relative to negative control. The method, then: After this, 10 μL of PBS and 2% red neutral (VN) were added, with incubation in an incubator for another 30 min. Soon afterwards, the supernatant was aspirated and the plates washed 3× with PBS to remove excess VN. […] Finally, the plates were placed under agitation in a Kline apparatus for 30 min, and then read in a spectrophotometer at 540 nm.

Series [14] concerns L. (L.) amazonensis-infected J774A.1 macrophages. In words: Cytokine production in infected macrophages, ELISA. The format is cell-based, murine. Particulars: 72 h. The method, then: According to Rodrigues et al., 2021 [27], to carry out cytokine evaluation, the supernatant saved after the J774A.1 macrophage infection assay was used to evaluate cytokine production. Analysis kits (optEIATM ELISA, Pharmingen, San Diego, CA, USA) were used following the manufacturer’s protocol to examine the release of cytokines (TNF-α, IL-1α, IL-6, IL-10, and IL-12), and standard recombinant cytokines were used to produce a curve. The reading was performed in a spectrophotometer at 450 nm.
Background: In an ELISA, binding on a coated surface is turned into a signal by an enzyme label.

Setting [15] is: read-out: growth inhibition of promastigote forms.
Setting [16] is: Leishmania amazonensis, read-out: growth inhibition of axenic amastigote forms.

Broadly, the IC50 is the concentration that inhibits the measured activity by half. One may read the EC50 as the concentration needed to bring the measured effect to its halfway point. A word on the viability: it is a read-out of living cells in per cent, often relative to untreated cells. As usually defined, the inhibition is the percentage by which the read-out fell short of the control.

Where two headings read alike, the source gives them in different places.

In the case of `C[C@@H]1[C@H](O)[C@@H](C)/C=C/C=C/C=C/C=C/C=C/C=C/C=C/[C@H](O[C@@H]2O[C@H](C)[C@@H](O)[C@H](N)[C@@H]2O)C[C@@H]2O[C@](O)(C[C@@H](O)C[C@@H](O)[C@H](O)CC[C@@H](O)C[C@@H](O)CC(=O)O[C@H]1C)C[C@H](O)[C@H]2C(=O)O` [Amphotericin B, reference compound], the values for the CC50 at 72 h in “in vitro [1]” and in the series “in vitro [4]” were 0.38 ± 0.06 µM and 0.32 ± 0.08 µM, respectively. For the same molecule, the IC50 in [2] (26 °C, MTT) came to 0.36 ± 0.03 µM. In addition, the EC50 was 0.29 ± 0.04 µM in series [3] (Leishmania amazonensis, J774.A1, infected J774A.1 macrophages, 72 h) and 0.23 ± 0.01 µM in series [5] (Leishmania amazonensis, 32 °C, MTT).
Take `C=C(C)[C@@H]1CC[C@]2(C)CC[C@]3(C)[C@H](CC[C@@H]4[C@@]5(C)CC[C@H](O)C(C)(C)[C@@H]5CC[C@]43C)[C@@H]12` [Lupeol]: the IC50 for promastigotes in [6] (L. (L.) amazonensis promastigotes ref 38) was 39.06 µg/mL. Also, the “IC50 for amastigote forms” value in series [7] (L. (L.) amazonensis amastigote forms ref 38) is given as 44.1 µg/mL.
For `CC1(C)C=C2[C@H]3CC[C@@H]4[C@@]5(C)CC[C@H](O)C(C)(C)[C@@H]5CC[C@@]4(C)[C@]3(C)CC[C@@]2(C(=O)O)CC1` [Morolic acid, morolic acid], the “levels of NO produced in infected macrophages” value in [8] was “increase”. In series [9], the “levels of ROS produced in infected macrophages” value is listed as “increase”. In series [10], the CC50 at 72 h was determined as 82.9 ± 1.84 µM; the viability at 72 h, 1.56 µM was found to be 100%; the viability at 72 h, 3.12 µM was 100%; the viability at 72 h, 6.25 µM amounted to 93.2%. In series [10], this molecule came in with a viability at 72 h, 12.5 µM of 88.8%; a viability at 72 h, 25 µM of 79.4%; a viability at 72 h, 50 µM of 71.2%; a viability at 72 h, 100 µM of 38.8%. For the same molecule, the viability at 72 h, 200 µM in series [10] amounted to 24.3%. In series [11], the CC50 at 72 h worked out at 68.6 ± 2.46 µM. Moreover, in series [11] (J774A.1 macrophages), the viability at 72 h, 1.56 µM came to 100%; the viability at 72 h, 3.12 µM was found to be 100%; the viability at 72 h, 6.25 µM was 100%; the viability at 72 h, 12.5 µM worked out at 100%. In series [11] (J774A.1 macrophages), this molecule returned a viability at 72 h, 25 µM of 100%; a viability at 72 h, 50 µM of 65%; a viability at 72 h, 100 µM of 15%; a viability at 72 h, 200 µM of 0%. For the same molecule, the “phagocytic capacity for zymosan” value in the series with J774A.1 macrophages [12] was “significant increase”. Further, in series [2], the IC50 came to 1.13 ± 0.04 µM. For the same molecule, in series [2] (setting [15]), the inhibition at 1.56 µM is 57.6%, the inhibition at 3.12 µM is 57.9%, the inhibition at 6.25 µM came out at 83.3% and the inhibition at 12.5 µM turned out to be 100%. In addition, in series [2] (setting [15]), the inhibition at 25 µM is 100%, the inhibition at 50 µM was found to be 100% and the inhibition at 100 µM was found to be 100%. Further, in the series with J774A.1 macrophages [13], the lysosomal activity result was “increased”. Moreover, in [3] (1.56 μM, 72 h), the “reduction in macrophage infection rate” value turned out to be 34% and the “reduction in the number of internalized amastigotes per infected macrophage” value (“reduction … per infected macrophage” for short) was determined as 59.1%. Besides, in series [3] (3.12 μM, 72 h), the “reduction in macrophage infection rate” value was 77.5% and the “reduction … per infected macrophage” value is given as 71.6%. Further, in series [3] (6.25 μM, 72 h), the “reduction in macrophage infection rate” value stood at 93% and the “reduction … per infected macrophage” value turned out to be 86.8%. Also, in [3] (12.5 μM, 72 h), the “reduction in macrophage infection rate” value was found to be 100% and the “reduction … per infected macrophage” value is 100%. For the same molecule, the EC50 in series [3] (Leishmania amazonensis, J774.A1, 72 h) was determined as 2.56 ± 0.08 µM. Besides, in series [14], the IL-1α levels result is reported as “no effect” and the IL-12 levels result was “no effect”. The “production of TNF-α” value in [14] (at the higher concentration) is given as “significant increase”. In [14] (at the highest concentrations), the IL-6 levels result is listed as “significant reduction” and the IL-10 levels entry is given as “significant reduction”. In addition, in series [5] (Leishmania amazonensis), the EC50 worked out at 2.74 ± 0.03 µM. In series [5] (setting [16]), the inhibition at 1.56 µM is 34.1%, the inhibition at 3.12 µM is 68.6%, the inhibition at 6.25 µM was found to be 76.4% and the inhibition at 12.5 µM was 100%. Also, in [5] (setting [16]), the inhibition at 25 µM turned out to be 100%, the inhibition at 50 µM was 100% and the inhibition at 100 µM is 100%.
For `C[C@H]1[C@H](C)CC[C@]2(C(=O)O)CC[C@]3(C)C(=CC[C@@H]4[C@@]5(C)CC[C@H](O)C(C)(C)[C@@H]5CC[C@]43C)[C@H]12` [ursolic acid], the IC50 for promastigotes in series [6] (L. (L.) amazonensis promastigotes ref 37) is 14.1 µg/mL. In addition, the “IC50 for axenic amastigotes” value in series [7] (L. (L.) amazonensis axenic amastigotes ref 37) was 2.24 µg/mL.
As for “Meglumine antimoniate [reference compound]”, the EC50 was determined as 541 ± 13.5 µM in series [3] (infected J774A.1 macrophages, 72 h) and 1020 ± 25.7 µM in series [5] (32 °C, MTT).
